The results in this text go back to patent publication US20110251216A1, “COMPOSITIONS AND METHODS FOR INHIBITING EZH2” (The Regents of The University of Michigan, priority 2010, published 2011).

Structures are written as SMILES.

What all share (assay type): cell-based
For assay [1], the system named is breast cell line HME infected with EZH2 adenovirus. Description: basement membrane matrix invasion assay, EZH2 overexpressing HME cells. As to the method: (§1) A, Dose response of isoliquiritigenin on inhibiting EZH2 mediated repression. B, A reconstituted basement membrane invasion chamber assay was used to assess the invasion of breast epithelial cell line infected with EZH2 and control adenoviruses as well as SET domain mutant EZH2 adenovirus. EZH2 treated cells were also treated with SAHA, the HDAC inhibitor and isoliquiritigenin, the small molecule inhibitor of EZH2 and the control small molecule phloretin.
For invasion assays, the breast cell lines HME was infected with EZH2 adenovirus. Forty-eight hours post-infection, cells were seeded onto the basement membrane matrix (EC matrix, Chemicon, Temecula, Calif.) present in the insert of a 24-well culture plate. Fetal bovine serum was added to the lower chamber as a chemoattractant with or without 2 doses of small molecule inhibitors. After 48 hours, the non-invading cells and EC matrix were gently removed with a cotton swab. Invasive cells located on the lower side of the chamber were measured colorimetrically by treating with 150 μl of 10% acetic acid and the absorbance measured at 560 nm using a spectrophotometer.

Assay [2] has as its system EZH2 mediated E cadherin repression. Put plainly: EZH2 mediated E cadherin repression, SYBR green RT-PCR and dose response. The protocol:
A, Chemical structure of the flavonoid isoliquiritigenin. B, Quantitative SYBR green RT-PCR of EZH2 and E cadherin transcripts in cell lines over expressing EZH2 and control adenoviruses. RT-PCR on each sample was performed in duplicate, and a ratio was calculated relative to the housekeeping genes GAPDH. Transcripts were also measured in cells that were treated with isoliquiritigenin or other small molecules.
as §1

The target of a further assay is T1, EZH2 (Homo sapiens, UniProt Q15910).
T1 construct: expressed in transfected cells; host or cells: Primary breast cancer cells infected with EZH2 adenovirus
T1 sequence (Q15910 whole entry): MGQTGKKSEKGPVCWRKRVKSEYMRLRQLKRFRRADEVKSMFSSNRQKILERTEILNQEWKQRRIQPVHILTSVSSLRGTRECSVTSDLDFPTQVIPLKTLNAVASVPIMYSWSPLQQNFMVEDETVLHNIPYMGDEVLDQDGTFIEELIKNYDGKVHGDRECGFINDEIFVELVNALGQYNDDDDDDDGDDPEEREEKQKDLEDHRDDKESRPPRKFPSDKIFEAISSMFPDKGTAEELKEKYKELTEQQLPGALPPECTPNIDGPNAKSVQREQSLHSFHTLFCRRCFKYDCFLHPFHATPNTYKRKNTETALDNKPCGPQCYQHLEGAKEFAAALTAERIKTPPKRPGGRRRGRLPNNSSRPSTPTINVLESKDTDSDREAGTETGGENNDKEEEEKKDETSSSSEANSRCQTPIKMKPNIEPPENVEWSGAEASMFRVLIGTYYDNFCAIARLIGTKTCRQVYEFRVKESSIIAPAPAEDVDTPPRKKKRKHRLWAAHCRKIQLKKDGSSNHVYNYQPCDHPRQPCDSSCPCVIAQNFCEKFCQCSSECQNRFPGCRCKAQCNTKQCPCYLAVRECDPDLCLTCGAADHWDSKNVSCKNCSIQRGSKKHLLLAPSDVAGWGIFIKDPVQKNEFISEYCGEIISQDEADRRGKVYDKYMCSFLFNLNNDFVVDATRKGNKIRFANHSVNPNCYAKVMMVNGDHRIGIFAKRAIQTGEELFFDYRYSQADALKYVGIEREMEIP
T1 sequence (O75530 whole entry partner): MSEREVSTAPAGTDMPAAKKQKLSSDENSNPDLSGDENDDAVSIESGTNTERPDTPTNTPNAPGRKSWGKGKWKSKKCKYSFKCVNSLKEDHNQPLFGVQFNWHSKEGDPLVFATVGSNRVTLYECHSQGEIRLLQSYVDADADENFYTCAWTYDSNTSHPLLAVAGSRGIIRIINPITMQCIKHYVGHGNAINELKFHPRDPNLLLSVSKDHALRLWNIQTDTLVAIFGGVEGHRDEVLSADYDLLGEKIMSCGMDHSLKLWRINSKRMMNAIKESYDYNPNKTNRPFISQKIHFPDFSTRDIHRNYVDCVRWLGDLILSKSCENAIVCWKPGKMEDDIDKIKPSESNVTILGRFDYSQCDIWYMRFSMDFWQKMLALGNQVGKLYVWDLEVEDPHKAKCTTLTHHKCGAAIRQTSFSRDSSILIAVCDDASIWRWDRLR
T1 sequence (Q15022 whole entry partner): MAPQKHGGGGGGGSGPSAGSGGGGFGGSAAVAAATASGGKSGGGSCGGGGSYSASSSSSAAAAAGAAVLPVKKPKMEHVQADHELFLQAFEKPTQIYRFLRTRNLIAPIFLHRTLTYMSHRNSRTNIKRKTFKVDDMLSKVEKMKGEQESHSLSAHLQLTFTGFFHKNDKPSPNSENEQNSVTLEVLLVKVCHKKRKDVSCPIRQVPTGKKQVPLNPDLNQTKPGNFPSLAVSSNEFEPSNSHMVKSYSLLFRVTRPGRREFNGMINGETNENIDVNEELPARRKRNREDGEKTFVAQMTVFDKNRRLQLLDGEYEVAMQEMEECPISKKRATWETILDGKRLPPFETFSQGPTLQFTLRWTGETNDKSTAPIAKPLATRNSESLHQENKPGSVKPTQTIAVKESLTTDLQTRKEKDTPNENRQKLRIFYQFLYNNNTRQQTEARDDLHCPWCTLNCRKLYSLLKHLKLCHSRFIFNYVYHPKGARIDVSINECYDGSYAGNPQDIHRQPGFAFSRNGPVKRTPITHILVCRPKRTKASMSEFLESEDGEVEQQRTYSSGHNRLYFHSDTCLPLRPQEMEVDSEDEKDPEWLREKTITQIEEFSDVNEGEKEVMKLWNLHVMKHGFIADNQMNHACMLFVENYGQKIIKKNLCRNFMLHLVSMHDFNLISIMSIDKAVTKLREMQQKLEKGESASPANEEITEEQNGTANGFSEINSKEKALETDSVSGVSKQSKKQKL
Description: high throughput screen, E-cadherin promoter luciferase reporter in EZH2 adenovirus infected cells. The following applies: final compound concentration about 5 μM, 24 hours. The protocol:
A high throughput screening protocol was used to identify small molecule inhibitors of EZH2. Primary breast cancer cells were transfected with the E-cadherin promoter luciferase reporter gene and infected with the EZH2 adenovirus to suppress luciferase expression 48 hours prior to compound addition. Eighteen hours prior to compound addition, cells were trypsinized and distributed into 384-well plates in 60 μl of medium using the Multidrop equipment. At time zero, compounds were transferred from 1.5 mM DMSO stocks to the cell plates in a final compound concentration of about 5 μM. […] After 24 hours, the expressed luciferase activity was measured by adding 50 μl of the medium and 10 μl of Steady-Glo luciferase reagent (Promega). Sample plates were read in the Pherastar plate reader (BMG Labtech). Each plate in the screen contains 320 compounds to be tested plus 64 control wells placed in the outer two columns on each side of the plate (>50,000 compounds are screened). […]
A high throughput screening protocol was used to identify small molecule inhibitors of EZH2. […] After 24 hours, the expressed luciferase activity was measured by adding 50 μl of the medium and 10 ul of Steady-Glo luciferase reagent (Promega). Sample plates were read in the Pherastar plate reader (BMG Labtech). […]
For orientation: In a reporter assay the amount or activity of a reporter protein is the signal.

In the case of `O=C(CCc1ccc(O)cc1)c1c(O)cc(O)cc1O` [control small molecule, phloretin, reference compound], the “invasion mediated by EZH2 overexpression” value in assay [1] was “did not inhibit the invasion”.
Consider `O=C(/C=C/c1ccc(O)cc1)c1ccc(O)cc1O` [isoliquiritigenin], for which the “inhibition of EZH2 mediated E cadherin repression” value in assay [2] (cells over expressing EZH2, FIG. 5B) is recorded as “significantly inhibit”. Further, in assay [2] (dose response, FIG. 6A), the “concentration that optimally inhibits EZH2 mediated E cadherin repression” value was found to be 16 µM. For the same compound, the “EZH2 inhibitory activity in high throughput screen” value at EZH2 is listed as “potent small molecule inhibitor of EZH2 activity”. In addition, in assay [1], the “invasion mediated by EZH2 overexpression” value is given as “inhibited this invasion”.
